Laboratory results published in PMC10447463, “Data-mining unveils structure–property–activity correlation of viral infectivity enhancing self-assembling peptides” (Nature Communications, 2023).
Like-named read-outs stand apart in the source and are kept apart here.

Key:
[1] = format: physicochemical; details: STD prep
[2] = format: physicochemical; details: for Tht category (> 1.5 to blank = +): category 1/0
In short: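 Fibrils (1 mg/mL solution) were mixed with 50 µM ThT in PBS for 15 min at RT, and fluorescence was read at λex 440/λem 488 nm against a PBS blank, as a triplicate mean ± SD. Zeta potential came from electrophoretic mobility (Smoluchowski) after 1 d aggregation at 1 mg/mL in PBS pH 7.4, diluted into 1 mM KCl.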

[3] = tested on: HIV-1 infection of TZM-bl cells; experiment: HIV-1 infectivity enhancement assay, β-galactosidase luminescence; format: cell-based; details: for Log10 Inf. rel. to EF-C: log10 of HIV-1 infection of TZM-bl cells relative to EF-C, Fig S15 source data, asymmetric std dev errors; for Rel-to EFC / n-fold to virus: Fig S8 panels B, D; for Rel-to EFC: infectivity enhancement relative to EF-C
[4] = ThT fluorescence relative to blank (42.1851851851852 a.u.)
[5] = relative to blank 42.1851851851852 a.u.
[6] = Feb2021, 1.3 µM value relative to virus only (0 µM)
[7] = Feb2021, log10 of infectivity relative to EF-C
[8] = Feb2021, n-fold infectivity relative to EF-C
[9] = Feb2021, unrounded values of the 1.3 µM column
[10] = infectivity class (low / medium / high) of each library peptide, main list in c1-c6, same classes repeated in sub-lists of sequences containing the hydrophobicity/charge patterns P+,H0,P+,H0,P0,H0,P0, P+,H0,P0,H0,P0,H0,P0, P+,H0,P0,H0
[11] = infectivity enhancement relative to EF-C (=1), Feb2021 run
[12] = infectivity n-fold relative to virus only, Feb2021 run
[13] = log10 of infectivity relative to EF-C, Feb2021 run
[14] = infectivity class (low / medium / high) of the peptide in the sequence-pattern analysis, Fig. S22-A4, class limits not given
[15] = Feb2021, Log10 of infectivity relative to EF-C
[16] = Feb2021, n-fold enhancement relative to EF-C
[17] = Feb2021 run, infectivity n-fold relative to virus alone
[18] = Feb2021 run, log10 of infectivity relative to EF-C
[19] = Feb2021 run, n-fold infectivity relative to EF-C
[20] = infectivity n-fold relative to virus alone
[21] = ThT fluorescence relative to blank, blank = 42.1851851851852
[22] = Feb2021, figures match the 1.3 µM column
[23] = Feb2021, infectivity relative to virus only

| Substance | TEM: 1= fibrils, 0= aggregates (micelle), 0.5 = aggregates and fibrils, -1 = nothing obersved, STD prep [1] | Tht rel to blank (42.1851851851852) [2, 4] | Tht category (> 1.5 to blank = +) [2] | Tht rel to blank (42.1851851851852) [2, 5] | n-fold to virus (Feb2021) [3, 6] | Log10 of Rel to EFC (Feb2021) [3, 7] | Rel-to EFC (Feb-2021) [3, 8] | Absolute Infectivity / RLU /s (Feb2021) [3, 9] [RLU /s] | infectivity [3, 10] | Log10 Inf. rel. to EF-C [3] | infectivity [3, 14] | Log10 of Rel to EFC (Feb2021) [3, 15] | Rel-to EFC (Feb-2021) [3, 16] | n-fold to virus (Feb2021) [3, 17] | Log10 of Rel to EFC (Feb2021) [3, 18] | Rel-to EFC (Feb-2021) [3, 19] | further results |
| --- | --- | --- | --- | --- | --- | --- | --- | --- | --- | --- | --- | --- | --- | --- | --- | --- | --- |
| CEIEIQI [AR2/ TM142] | 1 | 2.23 | 1 (ThT. Cat is 1, if Rel. ThT >2) | 2.23 | 1.173 | -1.554 | 0.02791 | 633.3 | low | -1.554 |  |  |  |  |  |  | Rel-to EFC (Feb-2021) [3, 11]: 0.02791; n-fold to virus (Feb2021) [3, 12]: 1.173; Log10 of Rel to EFC (Feb2021) [3, 13]: -1.554 |
| CEIEIQINM [TM144] | 1 | 5.13 | 1 (ThT. Cat is 1, if Rel. ThT >2) | 5.13 | 2.736 | -1.186 | 0.06512 | 3593 |  | -1.186 | low |  |  |  |  |  | Rel-to EFC (Feb-2021) [3, 11]: 0.06512; n-fold to virus (Feb2021) [3, 12]: 2.736; Log10 of Rel to EFC (Feb2021) [3, 13]: -1.186 |
| CKAKAQA [TM155] | 0.5 | 1.227 | 0 (ThT-inactive (N-Fold <2)) | 1.227 | 1.325 |  | 0.03153 | 1740 | low | -1.501 | low | -1.501 | 0.03153 | 1.325 | -1.501 | 0.03153 |  |
| CKAKAQANM [BL9] | 0.5 | 1.249 | 0 (ThT-inactive (N-Fold <2)) | 1.249 | 1.316 |  | 0.03133 | 430 | low | -1.504 |  | -1.504 | 0.03133 | 1.316 | -1.504 | 0.03133 |  |
| CKAKAQANMWQ [BL8] | 0.5 | 1.86 | 0 (ThT-inactive (N-Fold <2)) | 1.86 | 1.837 |  | 0.04371 | 600 | low | -1.359 |  | -1.359 | 0.04371 | 1.837 | -1.359 | 0.04371 | Rel-to EFC [3]: 0.04371; n-fold to virus [3, 20]: 1.837 |
| CKFKFQFNMW [KB14] | 1 |  | 1 (ThT. Cat is 1, if Rel. ThT >2) | 6.314 | 40.34 | -0.01766 | 0.9602 | 21516.66667 | high | -0.01766 | high |  |  | 40.34 | -0.01766 | 0.9602 |  |
| CKIKIQINMW [TM86] | 1 | 1.353 | 0 (ThT-inactive (N-Fold <2)) | 1.353 | 54.4 |  | 1.295 | 7253 | high | 0.1122 | high | 0.1122 | 1.295 | 54.4 | 0.1122 | 1.295 |  |
| CKWKWQW [KB4] | 0 |  | 0 (ThT-inactive (N-Fold <2)) | 1.321 | 10.67 | -0.5951 | 0.254 | 6760 | medium | -0.5951 |  |  |  |  |  |  | Rel-to EFC [3]: 0.254; n-fold to virus [3, 20]: 10.67 |
| CKYKYQY [KB2] | 0 |  | 1 (ThT. Cat is 1, if Rel. ThT >2) | 3.119 | 1.711 | -1.39 | 0.04071 | 1083 | low | -1.3903 |  |  |  |  |  |  |  |
| CQFQFQF [QBL4] | 1 |  | 1 (ThT. Cat is 1, if Rel. ThT >2) | 13.03 | 14.84 | -0.4519 | 0.3533 | 7570 | medium | -0.4519 |  |  |  |  |  |  | Rel-to EFC [3]: 0.3533; n-fold to virus [3, 20]: 14.84 |
| CSISIQINM [TM145] | 0.5 |  | 1 (ThT. Cat is 1, if Rel. ThT >2) | 5.919 | 8.332 | -0.7027 | 0.1983 | 10943.33333 | medium | -0.7027 |  |  |  |  |  |  |  |
| KAKAKAQA [TG15] | 0 | 1.151 | 0 (ThT-inactive (N-Fold <2)) |  |  |  | 0.008711 |  | low | -2.06 | low | -2.06 | 0.008711 |  |  |  | Tht rel to blank (42.1851851851852) [2, 21]: 1.151; Absolute Infectivity / RLU /s (Feb2021) [3, 22]: 186.7 RLU /s; n-fold to virus (Feb2021) [3, 23]: 0.366 |
| KAKAQANM [TM152] | 0.5 | 1.082 | 0 (ThT-inactive (N-Fold <2)) | 1.082 | 0.3782 |  | 0.009 | 496.7 | low | -2.046 | low | -2.046 | 0.009 | 0.3782 | -2.046 | 0.009 |  |
| KFKFKFQF [TG18] | 1 | 41.89 | 1 (ThT. Cat is 1, if Rel. ThT >2) |  |  |  | 0.7993 |  |  | -0.09726 | high | -0.09726 | 0.7993 |  |  |  | Tht rel to blank (42.1851851851852) [2, 21]: 41.89; Absolute Infectivity / RLU /s (Feb2021) [3, 22]: 18696.66667 RLU /s; n-fold to virus (Feb2021) [3, 23]: 33.59 |
| KFKQFFNMWQ [JG5] | 0 | 1.589 | 0 (ThT-inactive (N-Fold <2)) |  |  |  | 0.08925 |  | low | -1.0494 |  | -1.049 | 0.08925 |  |  |  | Tht rel to blank (42.1851851851852) [2, 21]: 1.589; Absolute Infectivity / RLU /s (Feb2021) [3, 22]: 1000 RLU /s; n-fold to virus (Feb2021) [3, 23]: 3.75 |
| KIKIKIQINMWQ [VH9] |  | 1.586 |  |  |  |  |  |  | high | -0.1048 | high | -0.1048 | 0.7855 |  |  |  |  |
